Reference: ChEMBL document CHEMBL3882724 (2013)

Biological target: T1, CYP21 (steroid 21-hydroxylase) (Homo sapiens, UniProt P08686)
T1 sequence (P08686 whole entry): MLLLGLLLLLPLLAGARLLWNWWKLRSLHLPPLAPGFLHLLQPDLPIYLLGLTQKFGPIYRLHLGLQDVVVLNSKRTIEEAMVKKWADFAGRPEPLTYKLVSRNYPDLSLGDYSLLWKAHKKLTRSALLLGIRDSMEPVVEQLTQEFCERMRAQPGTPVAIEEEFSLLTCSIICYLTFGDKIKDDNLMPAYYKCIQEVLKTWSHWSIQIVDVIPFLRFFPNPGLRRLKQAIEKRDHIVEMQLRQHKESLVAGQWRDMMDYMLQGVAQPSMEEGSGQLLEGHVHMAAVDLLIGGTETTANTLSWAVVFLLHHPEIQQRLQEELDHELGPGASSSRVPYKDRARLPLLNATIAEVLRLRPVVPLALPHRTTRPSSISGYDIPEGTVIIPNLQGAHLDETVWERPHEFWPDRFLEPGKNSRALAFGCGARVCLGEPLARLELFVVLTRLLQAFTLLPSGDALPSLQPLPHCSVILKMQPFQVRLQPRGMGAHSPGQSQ
Assay: Inhibition of human CYP21 transfected in HEK293 cells assessed as decrease in conversion of progesterone to 11-deoxycorticosterone preincubated for 5 hrs followed by progesterone addition measured after 20 hrs by ELISA
Assay type: cell-based
Parameters: concentration or dose not given beside the values
Conditions: HEK293 cells transfected with human CYP21, probe progesterone

| Structure (SMILES) | inhibition at 20 h [%] |
| --- | --- |
| C[C@@]1(O)CC[C@@]2(C)C(=CC[C@@H]3[C@@H]2CC[C@]2(C)C(c4cccnc4)=CC[C@@H]32)C1 | ≥ 50 |
| C[C@]12CCC(=O)C=C1C(C1CC1)C[C@@H]1[C@@H]2CC[C@]2(C)C(c3cncc(F)c3)=CC[C@@H]12 (stereo partly specified) | 10 to 50 |
| CC1C[C@H]2C3=CC=C(c4cncc(C(F)F)c4)[C@@]3(C)CC[C@@H]2[C@@]2(C)CCC(=O)C=C12 (stereo partly specified) | < 10 |
| C[C@]12CCC(=O)C=C1C(C1CC1)C[C@@H]1[C@@H]2CC[C@]2(C)C(c3cccnc3)=CC[C@@H]12 (stereo partly specified) | < 10 |
| CC1(C)C2=CC[C@@H]3[C@H](CC[C@]4(C)C(c5cccnc5)=CC[C@@H]34)[C@@]2(C)CC/C1=N\O | < 10 |
| CC(=O)N(C)[C@H]1CC[C@@]2(C)C(CC[C@@H]3[C@@H]2CC[C@]2(C)C(c4cncc(C)c4)=CC[C@@H]32)C1 (stereo partly specified) | 10 to 50 |
| CC1=C2CC[C@@H]3[C@H](CC[C@]4(C)C(c5cccnc5)=CC[C@@H]34)[C@@]2(C)CC/C1=N\O | 10 to 50 |
| CC1C[C@@H]2[C@H](CC[C@]3(C)C(c4cccnc4)=CC[C@@H]23)[C@@]2(C)CC[C@@](C)(O)CC12 (stereo partly specified) | 10 to 50 |
| CCc1ccncc1C1=CC=C2[C@@H]3CCC4CC(=O)NCC[C@]4(C)[C@H]3CC[C@]12C (stereo partly specified) | 10 to 50 |
| CC1C[C@@H]2[C@H](CC[C@]3(C)C(c4cccnc4)=CC[C@@H]23)[C@@]2(C)CC[C@](C)(O)CC12 (stereo partly specified) | 10 to 50 |
| CC(=O)Nc1cncc(C2=CC[C@H]3[C@@H]4CC=C5C[C@@H](O)CC[C@]5(C)[C@H]4CC[C@]23C)c1 | < 10 |
| C[C@]12CCNC(=O)CC1CC[C@@H]1[C@@H]2CC[C@]2(C)C(c3cncc(F)c3)=CC[C@@H]12 (stereo partly specified) | 10 to 50 |
| COC(=O)c1cncn1C1=CC[C@H]2[C@@H]3CC=C4C[C@@H](O)CC[C@]4(C)[C@H]3CC[C@]12C | 10 to 50 |
| CCNC(=O)NC1CC[C@@]2(C)C(CC[C@@H]3[C@@H]2CC[C@]2(C)C(c4cccnc4)=CC[C@@H]32)C1C (stereo partly specified) | < 10 |
| C[C@]12CC[C@H]3[C@@H](CC=C4C[C@@H](OC(=O)c5ccccc5)CC[C@@]43C)C1=CC=C2c1cccnc1 | 10 to 50 |
| Cc1ccncc1C1=CC=C2[C@@H]3CC[C@H]4CNC(=O)CC[C@]4(C)[C@H]3CC[C@]12C | 10 to 50 |
| CCC(=O)O[C@H]1CC[C@@]2(C)C(=CC[C@H]3C4=CC=C(c5cccnc5)[C@@]4(C)CC[C@@H]32)C1 | 10 to 50 |
| CN1C(=O)CC[C@@]2(C)C1=CC[C@@H]1[C@@H]2CC[C@]2(C)C(c3cncc(C(F)F)c3)=CC[C@@H]12 | < 10 |
| CCNC(=O)N[C@@H]1CC[C@@]2(C)C(CC[C@@H]3[C@@H]2CC[C@]2(C)C(n4ccnc4)=CC[C@@H]32)C1 (stereo partly specified) | ≥ 50 |
| Cc1cncc(C2=CC=C3[C@@H]4CCC5CNC(=O)CC[C@]5(C)[C@H]4CC[C@]23C)c1 (stereo partly specified) | 10 to 50 |
| CC(=O)NC1CC[C@@]2(C)C(CC[C@@H]3[C@@H]2CC[C@]2(C)C(c4cccnc4)=CC[C@@H]32)C1C (stereo partly specified) | < 10 |

| Structure (SMILES) | inhibition at 20 h [%] |
| --- | --- |
| CCc1ccncc1C1=CC=C2[C@@H]3CCC4C[C@@H](O)CC[C@]4(C)[C@H]3CC[C@]12C (stereo partly specified) | < 10 |
| CO[C@H]1CC[C@@]2(C)[C@@H](CC[C@@H]3[C@@H]2CC[C@]2(C)C(c4cnccc4C)=CC[C@@H]32)C1 | 10 to 50 |
| C[C@]12CC[C@H]3[C@@H](CCC4=CC(=O)CC[C@@]43C)C1=CC=C2c1cncc(Cl)c1 | 10 to 50 |
| C[C@]12CC[C@H]3[C@@H](CC=C4C=CCC[C@@]43C)C1=CC=C2c1cccnc1 | 10 to 50 |
| CC1C[C@H]2C3=CC=C(c4ccc(F)nc4)[C@@]3(C)CC[C@@H]2[C@@]2(C)CCC(=O)C=C12 (stereo partly specified) | 10 to 50 |
| Cc1ccncc1C(=O)O[C@H]1CC[C@@]2(C)C(=CC[C@H]3C4=CC=C(c5cccnc5)[C@@]4(C)CC[C@@H]32)C1 | 10 to 50 |
| C[C@]12CC(O)CC1CC[C@@H]1[C@@H]2CC[C@]2(C)C(c3cncc(Cl)c3)=CC[C@@H]12 (stereo partly specified) | 10 to 50 |
| CC(=O)O[C@H]1CC[C@@]2(C)C(CC[C@H]3C4=CC=C(c5cnccc5C)[C@@]4(C)CC[C@@H]32)C1 (stereo partly specified) | 10 to 50 |
| C[C@]12CCC(O)(CCCO)CC1CC[C@@H]1[C@@H]2CC[C@]2(C)C(c3cccnc3)=CC[C@@H]12 (stereo partly specified) | 10 to 50 |
| CC1C(O)CC[C@@]2(C)C1CC[C@@H]1[C@@H]2CC[C@]2(C)C(c3cncc(F)c3)=CC[C@@H]12 (stereo partly specified) | < 10 |
| CO[C@H]1CC[C@@]2(C)C(=CC[C@@H]3[C@@H]2CC[C@]2(C)C(n4ccnc4)=CC[C@@H]32)C1 | 10 to 50 |
| C[C@]12CC[C@H]3[C@@H](CC(Nc4nccs4)C45CC4CC[C@]35C)[C@@H]1CC=C2c1cccnc1 (stereo partly specified) | 10 to 50 |
| C[C@]12CC[C@H]3[C@@H](CCC45CC4NC(=O)CC[C@]35C)[C@@H]1CC=C2c1cccnc1 (stereo partly specified) | < 10 |
| C[C@]12CC[C@H]3[C@@H](CC4OC45C[C@@H](O)CC[C@]35C)C1=CC=C2c1cccnc1 (stereo partly specified) | ≥ 50 |
| C[C@@]1(O)CC[C@@]2(C)C(CCC3C4=CC=C(c5cccnc5)[C@@]4(C)CC[C@@H]32)C1 (single isomer, unassigned) | < 10 |
| C[C@]12CCC3(CCC(=O)O3)CC1CC[C@@H]1[C@@H]2CC[C@]2(C)C(c3cccnc3)=CC[C@@H]12 (stereo partly specified) | < 10 |
| C[C@]12CC[C@H](NC(=O)C(F)(F)F)CC1CC[C@@H]1[C@@H]2CC[C@]2(C)C(c3cccnc3)=CC[C@@H]12 (stereo partly specified) | 10 to 50 |
| C[C@]12CC[C@@H](N=[N+]=[N-])CC1CC[C@@H]1[C@@H]2CC[C@]2(C)C(c3cccnc3)=CC[C@@H]12 (stereo partly specified) | 10 to 50 |
| C[C@]12CCC(=O)C=C1C(n1ccnn1)C[C@@H]1[C@@H]2CC[C@]2(C)C(c3cccnc3)=CC[C@@H]12 (stereo partly specified) | 10 to 50 |
| C[C@]12CCC(=O)C=C1C(c1ccccc1)C[C@@H]1[C@@H]2CC[C@]2(C)C(c3cccnc3)=CC[C@@H]12 (stereo partly specified) | < 10 |
| CC1C[C@H]2C3=CC=C(c4ccc(F)nc4)[C@@]3(C)CC[C@@H]2[C@@]2(C)CCNC(=O)C=C12 (stereo partly specified) | 10 to 50 |

| Structure (SMILES) | inhibition at 20 h [%] |
| --- | --- |
| CCc1ccncc1C1=CC=C2[C@@H]3CCC4CNC(=O)CC[C@]4(C)[C@H]3CC[C@]12C (stereo partly specified) | 10 to 50 |
| C[C@]12CC[C@H]3[C@@H](CC(=O)C45CC4CC[C@]35C)C1=CC=C2c1cccnc1 (stereo partly specified) | ≥ 50 |
| CC1C[C@H]2C3=CC=C(c4cncc(C(F)F)c4)[C@@]3(C)CC[C@@H]2[C@@]2(C)CCNC(=O)C=C12 (stereo partly specified) | < 10 |
| C[C@]12CC[C@H]3[C@@H](CC=C4C[C@@H](OC(=O)Nc5cccnc5)CC[C@@]43C)C1=CC=C2c1cccnc1 | 10 to 50 |
| CCNC(=O)NC1CC[C@@]2(C)C(=CC[C@@H]3[C@@H]2CC[C@]2(C)C(c4cncc(OC)c4)=CC[C@@H]32)C1 (stereo partly specified) | 10 to 50 |
| COc1cncc(C2=CC[C@H]3[C@@H]4CC[C@H]5C[C@@H](OC)CC[C@]5(C)[C@H]4CC[C@]23C)c1 | 10 to 50 |
| CC(C)C(=O)O[C@H]1CC[C@@]2(C)C(=CC[C@H]3C4=CC=C(c5cccnc5)[C@@]4(C)CC[C@@H]32)C1 | 10 to 50 |
| C[C@]12CC[C@@H](NS(=O)(=O)C3CC3)CC1=CC[C@@H]1[C@@H]2CC[C@]2(C)C(c3cccnc3)=CC[C@@H]12 | 10 to 50 |
| CNC1CC[C@@]2(C)C(CCC3[C@@H]2CC[C@]2(C)C(c4cncc(C)c4)=CC[C@@H]32)C1 (single isomer, unassigned) | 10 to 50 |
| CC1C[C@@]2(C)C(CC[C@@H]3[C@@H]2CC[C@]2(C)C(c4cccnc4)=CC[C@@H]32)C(C)C1O (stereo partly specified) | 10 to 50 |
| C[C@]12CCC(=O)C=C1CC[C@@H]1[C@@H]2CC[C@]2(C)C(c3cncc(C(F)F)c3)=CC[C@@H]12 | 10 to 50 |
| C[C@]12CC[C@H](O)CC1CC[C@@H]1[C@@H]2CC[C@]2(C)C(c3ccc[n+]([O-])c3)CC[C@@H]12 (stereo partly specified) | 10 to 50 |
| CN1CCC(C(=O)O[C@H]2CC[C@@]3(C)C(=CC[C@H]4C5=CC=C(c6cccnc6)[C@@]5(C)CC[C@@H]43)C2)CC1 | 10 to 50 |
| CN1C(=O)CC[C@@]2(C)C1=CC[C@@H]1[C@@H]2CC[C@]2(C)C(c3cnccc3F)=CC[C@@H]12 | 10 to 50 |
| C[C@]12CC[C@H]3[C@@H](CC(c4ccccc4)C4=CC(=O)CC[C@@]43C)C1=CC=C2c1cccnc1 (stereo partly specified) | 10 to 50 |
| C[C@]12CCC(N)CC1CC[C@@H]1[C@@H]2CC[C@]2(C)C(c3cccnc3)=CC[C@@H]12 (single isomer, unassigned) | 10 to 50 |
| CC[C@@]1(O)CC[C@@]2(C)C(CC[C@@H]3[C@@H]2CC[C@]2(C)C(c4cccnc4)=CC[C@@H]32)C1 (stereo partly specified) | < 10 |
| CNC1CC[C@@]2(C)[C@@H](CC[C@@H]3[C@@H]2CC[C@]2(C)C(c4cccnc4)=CC[C@@H]32)C1 (stereo partly specified) | 10 to 50 |
| CC1CC2[C@H](CC[C@]3(C)C(c4cccnc4)=CC[C@@H]23)[C@@]2(C)CCC(C)(O)C=C12 (stereo partly specified) | 10 to 50 |
